In experiment [1] the test system is Trachea. The experiment in a line: Inhibition of Ach-induced contraction in Sprague-Dawley rat trachea. It is filed as functional, tissue-based.
Experiment [2] concerns Trachea. The experiment in a line: Inhibition of Ach-induced contraction in Sprague-Dawley rat trachea at 1 to 100 umol/L. The class given is functional, tissue-based. To be noted: read-out: pA2 (converted).
The test system of experiment [3] is Trachea. The experiment in a line: Inhibition of KCl-induced contraction in Sprague-Dawley rat trachea assessed as tracheal tension at 10^-6 mol/L (reference value: 2.16 to 2.59 g). The class given is functional.
Experiment [4] has as its system Trachea. The experiment in a line: Inhibition of KCl-induced contraction in Sprague-Dawley rat trachea assessed as tracheal tension at 10^-5 mol/L (reference value: 2.16 to 2.59 g). The class given is functional.
Experiment [5] concerns Trachea. The experiment in a line: Inhibition of KCl-induced contraction in Sprague-Dawley rat trachea assessed as maximal diastolic rate at 10^-5 mol/L (reference value: 6 +/- 0.6%). The class given is functional. Also noted: scale not given: the % may be the effect or the level left.
Experiment [6] deals with Trachea. The experiment in a line: Inhibition of Ach-induced contraction in Sprague-Dawley rat trachea assessed as maximal diastolic rate at 10^-9 mol/L (reference value: 12.7 +/- 2.8%). It is filed as functional. Also noted: scale not given: the % may be the effect or the level left.
The test system of experiment [7] is Trachea. The experiment in a line: Inhibition of Ach-induced contraction in Sprague-Dawley rat trachea assessed as maximal diastolic rate at 10^-5 mol/L (reference value: 15.9 +/- 2.6%). It is filed as functional. Details: scale not given: the % may be the effect or the level left.
In experiment [8] the test system is Trachea. The experiment in a line: Inhibition of Ach-induced contraction in Sprague-Dawley rat trachea assessed as tracheal tension at 10^-6 mol/L (reference value: 0.63 to 0.98 g). It is filed as functional.
The test system of experiment [9] is Trachea. The experiment in a line: Inhibition of KCl-induced contraction in Sprague-Dawley rat trachea assessed as tracheal tension at 10^-8 mol/L (reference value: 2.16 to 2.59 g). It is filed as functional.
The subject of experiment [10] is Trachea. The experiment in a line: Inhibition of Ach-induced contraction in Sprague-Dawley rat trachea assessed as tracheal tension at 10^-8 mol/L (reference value: 0.63 to 0.98 g). It is filed as functional.
Experiment [11] deals with Trachea. The experiment in a line: Inhibition of Ach-induced contraction in Sprague-Dawley rat trachea assessed as maximal diastolic rate at 10^-4 mol/L (reference value: 15 +/- 4.2%). The class given is functional. Details: scale not given: the % may be the effect or the level left.
Experiment [12] relates to Trachea. The experiment in a line: Inhibition of KCl-induced contraction in Sprague-Dawley rat trachea assessed as maximal diastolic rate at 10^-4 mol/L (reference value: 6.6 +/- 0.3%). It is filed as functional. Details: scale not given: the % may be the effect or the level left.
Experiment [13] has as its system Trachea. The experiment in a line: Inhibition of Ach-induced contraction in Sprague-Dawley rat trachea assessed as maximal diastolic rate at 10^-6 mol/L (reference value: 15.9 +/- 3%). The class given is functional. Details: scale not given: the % may be the effect or the level left.
The test system of experiment [14] is Trachea. The experiment in a line: Inhibition of KCl-induced contraction in Sprague-Dawley rat trachea assessed as maximal diastolic rate at 10^-8 mol/L (reference value: 7 +/- 0.3%). It is filed as functional. Details: scale not given: the % may be the effect or the level left.
Experiment [15] has as its system Trachea. The experiment in a line: Inhibition of KCl-induced contraction in Sprague-Dawley rat trachea assessed as maximal diastolic rate at 10^-6 mol/L (reference value: 6 +/- 1.2%). It is filed as functional. Details: scale not given: the % may be the effect or the level left.
Experiment [16] has as its system Trachea. The experiment in a line: Inhibition of KCl-induced contraction in Sprague-Dawley rat trachea assessed as maximal diastolic rate at 10^-9 mol/L (reference value: 5.9 +/- 1.8%). The class given is functional. Also noted: scale not given: the % may be the effect or the level left.
Experiment [17] concerns Trachea. The experiment in a line: Inhibition of Ach-induced contraction in Sprague-Dawley rat trachea assessed as maximal diastolic rate at 10^-7 mol/L (reference value: 14.2 +/- 2.3%). The class given is functional. Also noted: scale not given: the % may be the effect or the level left.
Experiment [18] concerns Trachea. The experiment in a line: Inhibition of Ach-induced contraction in Sprague-Dawley rat trachea assessed as tracheal tension at 10^-5 mol/L (reference value: 0.63 to 0.98 g). It is filed as functional.
In experiment [19] the test system is Trachea. The experiment in a line: Inhibition of KCl-induced contraction in Sprague-Dawley rat trachea assessed as tracheal tension at 10^-9 mol/L (reference value: 2.16 to 2.59 g). It is filed as functional.
Experiment [20] concerns Trachea. The experiment in a line: Inhibition of Ach-induced contraction in Sprague-Dawley rat trachea assessed as tracheal tension at 10^-9 mol/L (reference value: 0.63 to 0.98g). The class given is functional.
In experiment [21] the test system is Trachea. The experiment in a line: Inhibition of Ach-induced contraction in Sprague-Dawley rat trachea assessed as tracheal tension at 10^-7 mol/L (reference value: 0.63 to 0.98 g). It is filed as functional.
Experiment [22] concerns Trachea. The experiment in a line: Inhibition of Ach-induced contraction in Sprague-Dawley rat trachea assessed as tracheal tension at 10^-4 mol/L (reference value: 0.63 to 0.98 g). The class given is functional.
In experiment [23] the test system is Trachea. The experiment in a line: Inhibition of KCl-induced contraction in Sprague-Dawley rat trachea assessed as maximal diastolic rate at 10^-7 mol/L (reference value: 7 +/- 0.8%). It is filed as functional. Details: scale not given: the % may be the effect or the level left.
The test system of experiment [24] is Trachea. The experiment in a line: Inhibition of Ach-induced contraction in Sprague-Dawley rat trachea assessed as maximal diastolic rate at 10^-8 mol/L (reference value: 14 +/- 1.8%). The class given is functional. Details: scale not given: the % may be the effect or the level left.
Experiment [25] relates to Trachea. The experiment in a line: Inhibition of KCl-induced contraction in Sprague-Dawley rat trachea assessed as tracheal tension at 10^-7 mol/L (reference value: 2.16 to 2.59 g). The class given is functional.
Experiment [26] relates to Trachea. The experiment in a line: Inhibition of KCl-induced contraction in Sprague-Dawley rat trachea assessed as tracheal tension at 10^-4 mol/L (reference value: 2.16 to 2.59 g). It is filed as functional.

Molecules are shown by their SMILES.

For `Cn1c(=O)c2[nH]cnc2n(C)c1=O` [AMINOPHYLLINE], a half-maximal response with Trachea [1] (EC50) required 0.05 µM. Besides, the Kb in the experiment with Trachea [2] was 0.0479 µM.

As for `C[C@H]1CC[C@H]2[C@@](C)(O)[C@@H]3CC[C@@H]4[C@@H](C[C@H]5[C@H]4CC(=O)[C@H]4C[C@@H](O)CC[C@@]45C)[C@@H]3C[N+]2([O-])C1` (some centres undefined), the Activity with Trachea [3] came to 2.32 g; in the experiment on Trachea [4] it was 2.31 g; in the experiment with Trachea [5], 6.1%; with Trachea [6], 15.6%; in the experiment with Trachea [7], 21.6%; in the experiment on Trachea [8], 0.57 g. Also, the Activity in the experiment on Trachea [9] came to 2.29 g; in the experiment on Trachea [10], 0.6 g; with Trachea [11], 31.3%; in the experiment on Trachea [12], 5.7%; in the experiment on Trachea [13], 25.8%; in the experiment with Trachea [14] it was 6.9%. For the same compound, the Activity in the experiment with Trachea [15] was found to be 5.5%; with Trachea [16], 6.4%; with Trachea [17], 27%; in the experiment with Trachea [18] it was 0.58 g; in the experiment with Trachea [19], 2.3 g; in the experiment on Trachea [20], 0.61 g. Further, the Activity was 0.56 g in the experiment on Trachea [21]; 0.55 g in the experiment with Trachea [22]; 6.7% in the experiment with Trachea [23]; 17.2% with Trachea [24]; 2.3 g in the experiment on Trachea [25]; 2.31 g in the experiment on Trachea [26].

In the case of `C[C@@H]1CN[C@H]2[C@@H](C)[C@@]3(CC[C@]4(O)[C@@H]5CC(=O)[C@H]6C[C@@H](O)CC[C@]6(C)[C@H]5C[C@]45O[C@]53C)O[C@@H]2C1`, the Activity with Trachea [3] is 2.39 g; in the experiment with Trachea [4] it was 2.42 g; with Trachea [5], 3.3%; in the experiment on Trachea [6], 15.2%; in the experiment with Trachea [7], 30.2%; in the experiment on Trachea [8], 0.52 g. For the same compound, the Activity with Trachea [9] was determined as 2.37 g; in the experiment with Trachea [10] it was 0.55 g; in the experiment on Trachea [11], 23.4%; with Trachea [12] it was 2.1%; in the experiment with Trachea [13], 27.1%; in the experiment with Trachea [14], 5.1%. Besides, the Activity is recorded as 4.5% in the experiment on Trachea [15]; 6.3% in the experiment with Trachea [16]; 23% in the experiment with Trachea [17]; 0.5 g in the experiment with Trachea [18]; 2.34 g in the experiment on Trachea [19]; 0.56 g in the experiment with Trachea [20]. Further, the Activity with Trachea [21] is listed as 0.53 g; in the experiment on Trachea [22], 0.53 g; with Trachea [23], 5.6%; with Trachea [24] it was 18.3%; in the experiment with Trachea [25], 2.36 g; with Trachea [26], 2.45 g.

With `C[C@H]1CC[C@@H]2N(C1)C[C@H]1[C@@H]3C[C@H]4[C@@H](CC(=O)[C@H]5C[C@@H](O[C@@H]6O[C@H](CO)[C@@H](O)[C@H](O)[C@H]6O)CC[C@@]54C)[C@@H]3CC[C@H]1[C@]2(C)O`, the Activity stood at 2.45 g in the experiment with Trachea [3]; 2.47 g with Trachea [4]; 4.5% with Trachea [5]; 12.6% in the experiment with Trachea [6]; 22.7% in the experiment with Trachea [7]; 0.74 g in the experiment with Trachea [8]. Besides, the Activity worked out at 2.45 g in the experiment on Trachea [9]; 0.78 g in the experiment on Trachea [10]; 129.3% with Trachea [11]; 3% with Trachea [12]; 20.5% with Trachea [13]; 5.2% in the experiment on Trachea [14]. Besides, the Activity was found to be 5.3% in the experiment with Trachea [15]; 7.5% in the experiment on Trachea [16]; 17.7% with Trachea [17]; 0.71 g in the experiment on Trachea [18]; 2.4 g in the experiment with Trachea [19]; 0.81 g with Trachea [20]. Also, the Activity with Trachea [21] is recorded as 0.76 g; with Trachea [22], -0.13 g; in the experiment on Trachea [23], 5.2%; in the experiment with Trachea [24], 15.2%; in the experiment on Trachea [25] it was 2.45 g; in the experiment with Trachea [26], 2.52 g.

On to `Cc1c([C@H](C)[C@@H]2NC[C@@H](C)C[C@H]2O)ccc2c1C[C@H]1[C@H]2CC(=O)[C@H]2C[C@@H](O)CC[C@@]21C`, for which the Activity amounted to 2.2 g in the experiment with Trachea [3]; 2.18 g with Trachea [4]; 8% in the experiment on Trachea [5]; 13.6% in the experiment on Trachea [6]; 24.5% in the experiment on Trachea [7]; 0.5 g in the experiment on Trachea [8]. The Activity turned out to be 2.25 g in the experiment with Trachea [9]; 0.53 g with Trachea [10]; 115.2% in the experiment with Trachea [11]; 13.9% with Trachea [12]; 21.3% with Trachea [13]; 4.8% in the experiment with Trachea [14]. Further, the Activity worked out at 7.2% with Trachea [15]; 5.7% with Trachea [16]; 18.9% with Trachea [17]; 0.48 g in the experiment with Trachea [18]; 2.23 g in the experiment on Trachea [19]; 0.54 g with Trachea [20]. Also, the Activity in the experiment with Trachea [21] was 0.52 g; in the experiment on Trachea [22] it was -0.11 g; in the experiment with Trachea [23] it was 6.1%; in the experiment on Trachea [24], 16%; in the experiment with Trachea [25], 2.22 g; with Trachea [26], 2.04 g.

Turning to `C[C@H]1CC[C@H]2[C@@H](C)[C@H]3CC[C@@H]4[C@@H](C[C@H]5[C@H]4CC(=O)[C@H]4C[C@@H](O)CC[C@@]45C)[C@@H]3CN2C1`, the Activity in the experiment with Trachea [3] was determined as 2.2 g; in the experiment on Trachea [4] it was 2.2 g; in the experiment on Trachea [5] it was 3.2%; with Trachea [6] it was 12.2%; in the experiment with Trachea [7], 19.5%; with Trachea [8], 0.55 g. The Activity is given as 2.18 g in the experiment with Trachea [9]; 0.56 g with Trachea [10]; 20.9% with Trachea [11]; 2.9% in the experiment with Trachea [12]; 19.8% with Trachea [13]; 5.3% with Trachea [14]. Further, the Activity in the experiment with Trachea [15] was found to be 3.2%; in the experiment with Trachea [16], 5.7%; in the experiment on Trachea [17] it was 17.9%; in the experiment with Trachea [18], 0.55 g; with Trachea [19] it was 2.16 g; in the experiment on Trachea [20] it was 0.59 g. Also, the Activity with Trachea [21] turned out to be 0.56 g; in the experiment with Trachea [22], 0.54 g; in the experiment with Trachea [23], 3.9%; in the experiment on Trachea [24] it was 16.3%; in the experiment on Trachea [25], 2.2 g; in the experiment on Trachea [26], 2.21 g.

As to `COC(=O)C1=C(C)NC(C)=C(C(=O)OC)C1c1ccccc1[N+](=O)[O-]` [NIFEDIPINE], in the experiment on Trachea [1], the midpoint of the response, the EC50, lay at 6.5 µM. The Kb with Trachea [2] was 6.03 µM.

By EC50 is commonly meant the midpoint of the concentration-response curve.

The values above are taken from ChEMBL document CHEMBL3785034, “New isosteroidal alkaloids with tracheal relaxant effect from the bulbs of Fritillaria pallidiflora Schrenk” (Bioorg Med Chem Lett, 2016).
